From paper PMC12628652, “A Validated UPLC‐MS/MS Method for Monitoring Temozolomide and Perillyl Alcohol Metabolites in Biological Matrices: Insights From a Preclinical Pharmacokinetic Study” (Biomedical Chromatography, 2025)
“Also recorded” adds a separate entry of the source.

What was measured:
[1] = Biodistribution study in rats 4 h after single oral administration of POH and TMZ; assay type: in vivo, Male Wistar rats; conditions: 4 h after single oral dose POH 47 mg/kg and TMZ 2 mg/kg, n = 4
Experimental: Following blood collection, animals were anesthetized and euthanized, and their organs (kidneys, liver, spleen, brain, and lungs) were promptly excised and stored at −20°C. Tissue samples were homogenized in PBS (pH 7.4) at a ratio of 1 part tissue to 5 parts buffer (w/v), using a mechanical homogenizer equipped with a 5 mm probe.
For chromatographic analysis, 200 μL of each tissue homogenate was mixed with 50 μL of IS solution (final IS concentration: 100 ng/mL) and 750 μL of ACN to reach a final volume of 1 mL. The mixture was centrifuged at 3500 rpm for 10 min at 20°C. The supernatant was collected, filtered through a 0.22 μm membrane, and transferred to injection vials for UPLC‐MS/MS analysis. When necessary, samples were diluted appropriately to ensure analyte concentrations fell within the validated linear range.
The pharmacokinetic and biodistribution study was conducted in accordance with ethical guidelines and approved by the Animal Ethics Committee of the Universidade Estadual do Centro‐Oeste, Brazil (Protocol No. 026/2023). Male Wistar rats (n = 6 for pharmacokinetics; n = 4 for biodistribution), weighing approximately 200 g, were housed under controlled environmental conditions (12 h light/dark cycle, 35% relative humidity, and temperature of 23°C ± 2°C). Animals had free access to food and water, which were withheld 10 h prior to drug administration and resumed 2 h afterward.
Each animal received a single oral dose of POH (47 mg/kg) and TMZ (2 mg/kg). For pharmacokinetic profiling, blood samples were collected via the tail vein into heparinized tubes at predefined time points: 0.5, 1, 2, 4, 8, 12, and 24 h post‐administration. For biodistribution analysis, a separate cohort of rats (n = 4) was sacrificed 4 h after dosing. Organs, including the brain, liver, lungs, kidneys, and spleen, were collected, homogenized, and stored at −20°C for subsequent quantification, as detailed in Section 3.2.

[2] = Stability of analytes in rat plasma and tissue matrices (freeze-thaw, bench-top, autosampler); assay type: physicochemical; conditions: for Stability (ER %) Autosampler: 10°C for 24 h; for Stability (ER %) Bench-top: room temperature for 6 h; for Stability (ER %) Freeze/thaw: three freeze–thaw cycles over 24-h intervals
Experimental: QC samples were prepared by spiking blank rat plasma with PA, AIC, and TMZ at three concentration levels: 30, 80, and 200 ng/mL. Internal standards (IS1 and IS2) were added to each sample at a final concentration of 100 ng/mL. Whole blood was obtained from untreated anesthetized rats that were euthanized as part of the study protocol. Blood samples were collected into heparinized tubes and centrifuged at 3500 rpm for 10 min at 20°C to separate plasma. Organs including the brain, lungs, kidneys, spleen, and liver were promptly excised and homogenized using a Marconi mechanical tissue homogenizer (5 mm probe) in phosphate‐buffered saline (PBS, pH 7.4) at a 1:5 (w/v) tissue‐to‐buffer ratio.
For each matrix sample, 50 μL of homogenate or plasma was mixed with 50 μL of internal standard (IS) solution (100 ng/mL), followed by the addition of the respective working solution to reach the target analyte concentration. The volume was adjusted to 1 mL using an appropriate solvent mixture. Samples were centrifuged again at 3500 rpm for 10 min at 4°C. The resulting supernatants were filtered through 0.22 μm membrane filters prior to chromatographic analysis. All calibration standards and QC samples were prepared freshly on the day of analysis to minimize analyte degradation.
The stability of PA, AIC, and TMZ in rat plasma was assessed under the following conditions using low, medium, and high QC levels: (1) Freeze–thaw stability: Three freeze–thaw cycles over 24‐h intervals; (2) Bench‐top stability: Storage at room temperature for 6 h; (3) Autosampler stability: Storage at 10°C for 24 h. Analytes were considered stable if the relative error (RE%) remained within ±15% (Tiwari and Tiwari [2010]).

[3] = rat brain homogenate, 200 ng/mL
[4] = rat kidney homogenate, 30 ng/mL
[5] = rat kidney homogenate, 80 ng/mL
[6] = rat kidney homogenate, 200 ng/mL
[7] = rat liver homogenate, 200 ng/mL
[8] = rat spleen homogenate, 30 ng/mL
[9] = rat spleen homogenate, 80 ng/mL
[10] = rat spleen homogenate, 200 ng/mL

SMILES: C=C(C)[C@@H]1CC=C(C(=O)O)CC1 [PA, perillic acid]
- brain concentration / CNS penetration, in words ([1]; rat brain): limited brain penetration; also recorded: lower brain concentrations
- hepatic accumulation, in words ([1]; rat liver): marked hepatic accumulation
- tissue concentrations (brain, liver, spleen, kidney, lung), in words ([1]; rats): mainly distributed to liver and kidneys
- Stability (ER %) Autosampler ([2]; rat brain homogenate, 30 ng/mL): 2.95%
- Stability (ER %) Bench-top ([2]; rat brain homogenate, 30 ng/mL): 1.28%
- Stability (ER %) Freeze/thaw ([2]; rat brain homogenate, 30 ng/mL): 1.93%
- Stability (ER %) Autosampler ([2]; rat brain homogenate, 80 ng/mL): 2.37%
- Stability (ER %) Bench-top ([2]; rat brain homogenate, 80 ng/mL): 10.03%
- Stability (ER %) Freeze/thaw ([2]; rat brain homogenate, 80 ng/mL): 7.85%
- Stability (ER %) Autosampler [2, 3]: 4.49%
- Stability (ER %) Bench-top [2, 3]: 5.74%
- Stability (ER %) Freeze/thaw [2, 3]: 2.46%
- Stability (ER %) Autosampler [2, 4]: 4.24%
- Stability (ER %) Bench-top [2, 4]: 9.61%
- Stability (ER %) Freeze/thaw [2, 4]: 8.61%
- Stability (ER %) Autosampler [2, 5]: 3.42%
- Stability (ER %) Bench-top [2, 5]: 7.75%
- Stability (ER %) Freeze/thaw [2, 5]: 7.99%
- Stability (ER %) Autosampler [2, 6]: 3.31%
- Stability (ER %) Bench-top [2, 6]: 1.36%
- Stability (ER %) Freeze/thaw [2, 6]: 1.82%
- Stability (ER %) Autosampler ([2]; rat liver homogenate, 30 ng/mL): 5.04%
- Stability (ER %) Bench-top ([2]; rat liver homogenate, 30 ng/mL): 1.59%
- Stability (ER %) Freeze/thaw ([2]; rat liver homogenate, 30 ng/mL): 1.52%
- Stability (ER %) Autosampler ([2]; rat liver homogenate, 80 ng/mL): 2.92%
- Stability (ER %) Bench-top ([2]; rat liver homogenate, 80 ng/mL): 2.49%
- Stability (ER %) Freeze/thaw ([2]; rat liver homogenate, 80 ng/mL): 3.24%
- Stability (ER %) Autosampler [2, 7]: 4.45%
- Stability (ER %) Bench-top [2, 7]: 0.42%
- Stability (ER %) Freeze/thaw [2, 7]: 2.39%
- Stability (ER %) Autosampler ([2]; rat lung homogenate, 30 ng/mL): 4.01%
- Stability (ER %) Bench-top ([2]; rat lung homogenate, 30 ng/mL): 1.39%
- Stability (ER %) Freeze/thaw ([2]; rat lung homogenate, 30 ng/mL): 2.68%
- Stability (ER %) Autosampler ([2]; rat lung homogenate, 80 ng/mL): 4.14%
- Stability (ER %) Bench-top ([2]; rat lung homogenate, 80 ng/mL): 2.94%
- Stability (ER %) Freeze/thaw ([2]; rat lung homogenate, 80 ng/mL): 4.23%
- Stability (ER %) Autosampler ([2]; rat lung homogenate, 200 ng/mL): 3.04%
- Stability (ER %) Bench-top ([2]; rat lung homogenate, 200 ng/mL): 8.02%
- Stability (ER %) Freeze/thaw ([2]; rat lung homogenate, 200 ng/mL): 6.65%
- Stability (ER %) Autosampler ([2]; rat plasma, 30 ng/mL): 10.61%
- Stability (ER %) Bench-top ([2]; rat plasma, 30 ng/mL): 5.32%
- Stability (ER %) Freeze/thaw ([2]; rat plasma, 30 ng/mL): 1.26%
- Stability (ER %) Autosampler ([2]; rat plasma, 80 ng/mL): 14.01%
- Stability (ER %) Bench-top ([2]; rat plasma, 80 ng/mL): 11.90%
- Stability (ER %) Freeze/thaw ([2]; rat plasma, 80 ng/mL): 8.67%
- Stability (ER %) Autosampler ([2]; rat plasma, 200 ng/mL): 3.21%
- Stability (ER %) Bench-top ([2]; rat plasma, 200 ng/mL): 13.82%
- Stability (ER %) Freeze/thaw ([2]; rat plasma, 200 ng/mL): 4.45%
- Stability (ER %) Autosampler [2, 8]: 3.25%
- Stability (ER %) Bench-top [2, 8]: 2.55%
- Stability (ER %) Freeze/thaw [2, 8]: 2.72%
- Stability (ER %) Autosampler [2, 9]: 2.24%
- Stability (ER %) Bench-top [2, 9]: 6.84%
- Stability (ER %) Freeze/thaw [2, 9]: 5.52%
- Stability (ER %) Autosampler [2, 10]: 3.41%
- Stability (ER %) Bench-top [2, 10]: 9.57%
- Stability (ER %) Freeze/thaw [2, 10]: 8.51%
